Reference: patent US7361643B2, “Methods for inhibiting angiogenesis” (University of Puerto Rico, priority 2000, dated 2008)

Key:
protein N-glycosylation = conditions: pre-treatment of cells with β-antagonist; cited from earlier work
[1] = system: bovine adrenal medullary microvascular endothelial cells; assay: Capillary endothelial cell growth and proliferation (cell count in hemacytometer); type: cell-based
Protocol: Cells in the amount of 2.0×10^4 were seeded per well in 24-well clusters in 1 ml complete EMEM containing 10% (v/v) serum and allowed to grow for 72 hours. Media were removed and the cells were washed twice with phosphate-buffer saline, pH 7.4 (PBS). Cells were synchronized by incubating for 48 hours in 2 mM hydroxyurea in serum-free EMEM with glutamine (2 mM) and one-third of penicillin-streptomycin used in a regular culture condition, followed by incubating 24 hours in serum-free EMEM, as discussed in CAO et al., “Modified Method of Mammalian Cell Synchronization Improves Yield and Degree of Synchronization”, Exp. Cell Res., 193:405-410 (1991), the disclosure of which is herein incorporated by reference in its entirety.
For proliferation assay, cells were trypsinized and counted in a hemacytometer. Viability of cells was determined by trypan blue (0.4% (v/v)) exclusion. Statistical analysis was carried out by StatView II software (Macintosh). Quantitation of cellular differentiation was carried out by observing under a Nikon AlphaShot inverted microscope, and counting the number of capillary lumen-like structures in five randomly selected fields per sample.
Synchronized cells, as described in Example 1, were cultured at 37° C. in complete EMEM containing fetal bovine serum (1% (v/v), 2% (v/v), or 10% (v/v), or complete EMEM with 2% (v/v) fetal bovine serum containing 1 ng/ml −100 ng/ml of bFGF/FGF-2, or containing 0.5 μg/ml to 5.0 μg/ml tunicamycin (lot number 10922120-07 from Boehringer-Mannheim, Indianapolis, Ind.). In each case, the cellular growth and proliferation was monitored by trypan blue exclusion, by counting the cell number, and by their ability to process through the cell cycle by flow cytometry.
Proliferation and Differentiation of Capillary Endothelial Cells: 2.0×10^4 cells were seeded per well in 24-well clusters in 1 ml complete EMEM containing 10% (v/v) serum and allowed to grow for 72 hours. Media were removed and the cells were washed twice with phosphate-buffer saline, pH 7.4 (PBS). […] Cells were routinely monitored by light microscopy. For proliferation assay, cells were trypsinized and counted in a hemacytometer. Viability of cells was determined by trypan blue (0.4% (v/v)) exclusion. […] Quantitation of cellular differentiation was carried out by observing under a Nikon AlphaShot inverted microscope, and counting the number of capillary lumen-like structures in five randomly selected fields per sample. The results were expressed as percent of its corresponding control after normalization of cell numbers. Analysis of Cell Cycle by Flow Cytometry: Assessment of the cell cycle was determined by propidium iodide staining of fixed cell nuclei followed by flow cytometry in a FacSort (Beckton Dickinson) according to the method of Krishan (1975) as modified by Vindelov (1977), as discussed in KRISHAN, “Rapid Flow Cytometric Analysis of Mammalian Cell Cycle by Propidium Iodide Staining”, J. Cell Biol. 66:188-195 (1975); and VINDELOV, “Flow Cytometric Analysis of Nuclear DNA in Cells from Solid Tumors and Cell Suspensions”, Virchows Arch (B), 24:227-231 (1977), the disclosures of which are herein incorporated by reference in their entireties. […]

[2] = system: bovine adrenal medullary microvascular endothelial cells; assay: Cell cycle and apoptosis by flow cytometry (propidium iodide); type: cell-based
Protocol: Regarding flow cytometry, assessment of the cell cycle was determined by propidium iodide staining of fixed cell nuclei followed by flow cytometry in a FacSort (Beckton Dickinson) according to the method of Krishan (1975) as modified by Vindelov (1977), as discussed in KRISHAN, “Rapid Flow Cytofluorometric Analysis of Mammalian Cell Cycle by Propidium Iodide Staining”, J. Cell Biol., 66:188-193 (1975); and VINDELOV, “Flow Cytometric Analysis of Nuclear DNA in Cells from Solid Tumors and Cell Suspensions”, Virchows Arch (B), 24:227-231(1977), the disclosures of which are herein incorporated by reference in their entireties. Briefly, cells were trypsinized, and pelleted by centrifugation at 900 rpm in a bench top centrifuge (Sorvall T6000B). After washing twice with PBS the cell pellet was resuspended in propidium iodide-buffer (PI-buffer; 10 mM Tris-HCl, pH 8.0 containing 10 mM NaCl, 0.7 μM PI, 700 units/liter RNase, and 0.1% (v/v) NP-40), kept in ice for 30 minutes and then fixed with 2% (v/v) paraformaldehyde. After FacSort calibration, 3000 events were counted per sample. Acquisition and analysis of data were carried out by using Cell Quest flow cytometry software (Macintosh-based). Gates: M1=G0/G1, M2=S, M3=G2+M, M4=apoptosis.
Proliferation and Differentiation of Capillary Endothelial Cells: 2.0×10^4 cells were seeded per well in 24-well clusters in 1 ml complete EMEM containing 10% (v/v) serum and allowed to grow for 72 hours. Media were removed and the cells were washed twice with phosphate-buffer saline, pH 7.4 (PBS). Cells were synchronized by incubating for 48 hours in 2 mM hydroxyurea in serum-free EMEM with glutamine (2 mM) and one-third of penicillin-streptomycin used in a regular culture condition, followed by incubating 24 hours in serum-free EMEM, as discussed in CAO et al., “Modified Method of Mammalian Cell Synchronization Improves Yield and Degree of Synchronization”, Exp. Cell Res., 193:405-410 (1991), the disclosure of which is herein incorporated by reference in its entirety. Cells were routinely monitored by light microscopy. For proliferation assay, cells were trypsinized and counted in a hemacytometer. Viability of cells was determined by trypan blue (0.4% (v/v)) exclusion. Statistical analysis was carried out by StatView II software (Macintosh). Quantitation of cellular differentiation was carried out by observing under a Nikon AlphaShot inverted microscope, and counting the number of capillary lumen-like structures in five randomly selected fields per sample. The results were expressed as percent of its corresponding control after normalization of cell numbers. Analysis of Cell Cycle by Flow Cytometry: Assessment of the cell cycle was determined by propidium iodide staining of fixed cell nuclei followed by flow cytometry in a FacSort (Beckton Dickinson) according to the method of Krishan (1975) as modified by Vindelov (1977), as discussed in KRISHAN, “Rapid Flow Cytometric Analysis of Mammalian Cell Cycle by Propidium Iodide Staining”, J. Cell Biol. 66:188-195 (1975); and VINDELOV, “Flow Cytometric Analysis of Nuclear DNA in Cells from Solid Tumors and Cell Suspensions”, Virchows Arch (B), 24:227-231 (1977), the disclosures of which are herein incorporated by reference in their entireties. Briefly, cells were trypsinized, and pelleted by centrifugation at 900 rpm in a bench top centrifuge (Sorvall T6000B). After washing twice with PBS the cell pellet was resuspended in propidium iodide-buffer (PI-buffer; 10 mM Tris-HCl, pH 8.0 containing 10 mM NaCl, 0.7 μM PI, 700 units/liter RNase, and 0.1% (v/v) NP-40), kept in ice for 30 minutes and then fixed with 2% (v/v) paraformaldehyde. After FacSort calibration, 3000 events were counted per sample. Acquisition and analysis of data were carried out by using Cell Quest flow cytometry software (Macintosh-based). Gates: M1 G0/G1, M2=S, M3=G2+M, M4=apoptosis.

[3] = system: capillary endothelial cells; conditions: BANERJEE et al. (1993); cited from earlier work
[4] = cycloheximide replacing tunicamycin (data not shown)

For `Cc1ccc(OCC(O)C(C)NC(C)C)c2c1CCC2` (stereo not drawn) [ICI-118,551], which “protein N-glycosylation” value (protein N-glycosylation) is on record?
Its value is “reduced protein N-glycosylation substantially”.

With `CC(C)NCC(O)COc1ccc(CC(N)=O)cc1` (stereo not drawn) [atenolol] as the compound, how does the “protein N-glycosylation” value (protein N-glycosylation) read?
Its value is “reduced protein N-glycosylation substantially”.

With `C[C@@H]1C[C@@H]([C@H](O)CC2CC(=O)NC(=O)C2)C(=O)[C@@H](C)C1` [cycloheximide] as the compound, how does the cell proliferation [1, 4] read?
Its cell proliferation is “inhibited the cell proliferation in a time- and dose-dependent manner”.

And the induction of apoptosis [2, 4]?
The induction of apoptosis was “did not induce apoptosis”.

Which endothelial cell proliferation [3] does the source give for Amphomycin here?
Its endothelial cell proliferation is “inhibits endothelial cell proliferation in a dose-dependent manner”.

For “bFGF/FGF-2: basic fibroblast growth factor”, which endothelial cell proliferation ([1]; bFGF/FGF-2 10 ng/ml-100 ng/ml in 2% serum) is on record?
Its endothelial cell proliferation is “stimulated the endothelial cell proliferation over the controls”.

What about the “reduction of the lag phase” value ([1]; bFGF/FGF-2 at stimulatory concentrations) of the same compound?
The value was about 24 h.

And the “time to complete the cell cycle” value ([2]; bFGF/FGF-2 10 ng/ml-100 ng/ml (68 hours in 2% serum control))?
Its value is 56 h.

And the “shortening of the G1 phase” value ([2]; bFGF/FGF-2 10 ng/ml-100 ng/ml versus 2% serum)?
Its value is 12 h.
